Test [1] deals with middle cerebral artery ischemia model of rat. The test can be described thus: Infarction inhibiting action in middle cerebral artery ischemia (MCAo-recirculation) model of rat. The format is in vivo. The note with it: ip, 24 h, 3 mg/kg i.p. 10 minutes before occlusion and 1 hour after recirculation, infarction volume one day after, vs control group, read-out: Rate of inhibition of infarction. An excerpt: It is also known that, in this way, in the acute stage of cerebral infarction, the lesion proceeds to the peripheral tissue from the core of infarction, and death of the nerve cells is extended with the passage of several days. This possible not only extends and creates grave aftereffects, and causes loss of motor and mental function, but also finally critically influences on the life. As an in vivo experimental model of cerebral infarction which is capable of precisely evaluating the clinical effect of a medicine in conformity with clinical conditions of the disease of a patient of cerebral infarction, the middle cerebral artery occlusion (MCAo)-recirculation model comprising an embolus with a yarn using Wister rates may be used [Document: Japan Journal of Stroke, vol. 8, 1 (1986)]. […] This action was evaluated by applying the MCAo model by the method which will be described below.
In rats of 10 weeks old, after etherization, a median incision of the cervical region was made up to the right carotid artery bifurcation under 1.0% halothane anesthetization with care to preserve the vagus nerves. The common carotid artery and the external carotid artery were separated from the periphery connective tissue with the right carotid artery bifurcation as the center, and each of the arteries was ligated by a 6-0 silk yarn (Eto yarn). Further, a yarn was wound on the internal carotid artery origin in preparation for ligation and fixing after insertion of the embolus. Next, the common carotid artery was incised, and the embolus was inserted from the common carotid artery to the internal carotid artery by about 15 to 16 mm, and ligated and fixed to the internal carotid artery by the silk yarn at the end thereof near the nylon yarn. In this operation, the end of the embolus was inserted into the anterior cerebral artery by about 1 to 2 mm beyond the middle cerebral artery bifurcation, and the inlet of the middle cerebral artery was occluded by the body (resin part) of the embolus for 1 hours. In recirculation, the embolus with a yarn was removed to recirculate the blood flow to the middle cerebral artery. 3 mg/kg of each of test compounds was intraperitoneally administered 10 minutes before occlusion and 1 hour after recirculation of the blood flow. One day after occlusion and recirculation, the whole body was perfused with physiologic saline through the heart, and the brain was extracted. The extracted brain was cooled with ice and water for 5 minutes, and cut at intervals of 2.0 mm to form 7 sections of the cerebral coronal surface. Each of the sections was stained with TTC (Triphenyltetrazolium Chloride), and fixed by a 5% neutral buffer formalin solution. In each of the sections, the infarction area in the right cerebral hemisphere was measured by an image analyzer (Olympus), and the infarction was evaluated by volume (mm^3). The infarction volume was compared with the infarction volume of a control group to calculate the rate of inhibition of infarction.

Another test deals with cultured nerve cells. The test can be described thus: Action of protecting cultured nerve cells from glutamic acid toxicity (LDH leakage). The format is cell-based, Wistar rat. The note with it: rat fetal cerebral cortex cells, 10 mM glutamic acid, 24 hours, read-out: ED50 (the source's name). The text has this:
It is known that when the blood flow to the brain is temporarily clogged due to cerebral ischemia, hypoxia, or an trauma, delayed cerebral neuronal death is induced [Document: Brain Research, Vol. 239, 57 (1982)]. A possible cause of such damage of the cerebral nerve cells is excitatory toxicity due to an excitatory neutotransmitter such as glutamic acid or the like, which is excessively released with ischemia [Document: Trends in Neuroscience, vol. 10, 299 (1987)]. […] This is a problem to be solved by the invention. This action was evaluated by using the in vitro evaluation system which will be described below.
A fetus was taken from the abdomen of a Wistar female rat on the 18 to 19th day of pregnancy under aseptic conditions, and the head of the fetus was opened to extract the brain. The brain was placed in an ice-cooled L-15 medium, and the cerebral cortex was separated under a microscope. The cerebral cortexes of about 30 rats were cut into pieces, and then suspended in 10 ml of a 0.25% trypsin solution and 0.2 ml of a 0.01% DNase solution, followed by culture at 37° C. for 30 minutes. Then, 2 ml of serum was added to the solution, and immediately the resultant mixture was centrifuged at 120 rpm for 2 minutes to separate the precipitates. To the precipitates was added 7 ml of a DF medium (a medium obtained by adding 20 nM of transferrin, 5 μg/ml of insulin, 20 nM of progesterone,60 nM of selenite, 50 U/ml of penicillin, and 50 U/ml of streptomycin to a mixture equivalent amounts of Dulbecco modified Eagle medium and F-12 medium), followed by 20 pipetting operations using a 10-ml plastic pipette to obtain a cell suspension. The cell suspension was filtered with nylon mesh (pore diameter 43 μm) to fractionate isolated cells. The thus-obtained isolated cells were diluted with a DF medium to a concentration of 6.0×10^5 cells/ml, and 500 μl of the diluted cells was inoculated in each of the 48 wells of a 48-well culture plate precoated with polylysine, followed by culture at 37° C. for 1 day in the presence of 5% of CO2. On the 2nd day, the medium was changed to a new DF medium, and 10 μl of a solution of 0.5M glutamic acid in distilled water was added to each of the wells (the final glutamic acid concentration was 10 mM), followed by further culture at 37° C. for 24 hours in the presence 5% of CO2. A test compound was dissolved in distilled water, 10% or 100% DMSO or 10% methanol, and 5 μl of the solution was added to each of the wells immediately before glutamic acid was added. As an index of nerve cell damage, the enzyme activity of lactic acid dehydrogenase (LDH) leaking from the damaged cells into the medium was measured. For each of the test compounds, the LDH leakage was measured at each of concentrations to determine a dose-response curve by the modified Cochran-Armitige method. The 50% effective dose (ED50) of each of the test compounds we determined from the curve.
For orientation: LDH in the medium is a marker of cell lysis.

Structures are written as SMILES.

For `Oc1ccc2c3c1O[C@H]1c4[nH]c5ccccc5c4C[C@@]4(O)[C@@H](C2)N(CC2CC2)CC[C@]314` [Compound 1, 17-cyclopropylmethyl-3,14β-dihydroxy-6,7-dehydro-4,5α-epoxy-6,7,2',3'-indolomorphinan], the inhibition in vivo at 3 mg/kg in test [1] was determined as 23%.

With `Oc1ccc2c3c1O[C@H]1c4c(c5ccccc5n4-c4ccccc4)C[C@@]4(O)[C@@H](C2)N(CC2CC2)CC[C@]314` [Compound 4, 17-cyclopropylmethyl-3,14β-dihydroxy-6,7-dehydro-4,5α-epoxy-6,7,2',3'-(1'-phenylindolo)morphinan], the EC50 with cultured nerve cells was found to be 80 nM.

For `CCCCCCCc1ccc2c3c([nH]c2c1)[C@@H]1Oc2c(O)ccc4c2[C@@]12CCN(CC1CC1)[C@H](C4)[C@]2(O)C3` [Compound 7, 17-cyclopropylmethyl-3,14β-dihydroxy-6,7-dehydro-4,5α-epoxy-6,7,2',3'-(6'-heptylindolo)morphinan], in the test on cultured nerve cells, the EC50 came to 200 nM.

`Oc1ccc2c3c1O[C@H]1c4[nH]c5c(cc(Cl)c6ccccc65)c4C[C@@]4(O)[C@@H](C2)N(CC2CC2)CC[C@]314` [Compound 10, 17-cyclopropylmethyl-3,14β-dihydroxy-6,7-dehydro-4,5α-epoxy-6,7,2',3'-(5'-chloro-6',7'-benzoindolo)morphinan]: the inhibition in vivo at 3 mg/kg in test [1] stood at 15%.

Regarding `N#Cc1cc2c3c([nH]c2c2ccccc12)[C@@H]1Oc2c(O)ccc4c2[C@@]12CCN(CC1CC1)[C@H](C4)[C@]2(O)C3` [Compound 11, 17-cyclopropylmethyl-3,14β-dihydroxy-6,7-dehydro-4,5α-epoxy-6,7,2',3'-(5'-cyano-6',7'-benzoindolo)morphian], the EC50 in the test on cultured nerve cells is 138 nM.

With `Cc1cc2c3c([nH]c2c2ccccc12)[C@@H]1Oc2c(O)ccc4c2[C@@]12CCN(CC1CC1)[C@H](C4)[C@]2(O)C3` [Compound 13, 17-cyclopropylmethyl-3,14β-dihydroxy-6,7-dehydro-4,5α-epoxy-6,7,2',3'-(5'-methyl-6',7'-benzoindolo)morphinan], in the test with cultured nerve cells, the EC50 stood at 93 nM.

Turning to `Oc1ccc2c3c1O[C@H]1c4[nH]c5c(cc(-c6ccccc6)c6ccccc65)c4C[C@@]4(O)[C@@H](C2)N(CC2CC2)CC[C@]314` [Compound 15, 17-cyclopropylmethyl-3,14β-dihydroxy-6,7-dehydro-4,5α-epoxy-6,7,2',3'-(5'-phenyl-6',7'-benzoindolo)morphinan], the EC50 in the test on cultured nerve cells was found to be 150 nM.

On to `COc1ccc2c3c1O[C@H]1c4[nH]c5ccc(C(C)(C)C)cc5c4C[C@@]4(O)[C@@H](C2)N(CC2CC2)CC[C@]314` [Compound 16, 17-cyclopropylmethyl-3-methoxy-14β-hydroxy-6,7-dehydro-4,5α-epoxy-6,7,2',3'-(5'-t-butylindolo)morphinan], for which the inhibition in vivo at 3 mg/kg in test [1] is 22%.

With `Oc1ccc2c3c1O[C@H]1c4[nH]c5c6c(ccc5c4C[C@@]4(O)[C@@H](C2)N(CC2CC2)CC[C@]314)Cc1ccccc1-6` [Compound 22, 17-cyclopropylmethyl-3,14β-dihydroxy-6,7-dehydro-4,5α-epoxy-6,7,2',3'-(6',7',2",3"-indenoindolo)morphinan], the EC50 with cultured nerve cells amounted to 50 nM.

For the molecule `NCCCn1c2c(c3ccccc31)C[C@@]1(O)[C@H]3Cc4ccc(O)c5c4[C@@]1(CCN3CC1CC1)[C@H]2O5` [Compound 24, 17-cyclopropylmethyl-3,14β-dihydroxy-6,7-dehydro-4,5α-epoxy-6,7,2',3'-[1'-(3-aminopropyl)indolo]morphinan], the EC50 in the test on cultured nerve cells was found to be 800 nM.

In the case of `Oc1ccc2c3c1O[C@H]1c4c(c5ccccc5n4CCCN=C=S)C[C@@]4(O)[C@@H](C2)N(CC2CC2)CC[C@]314` [Compound 59, 17-cyclopropylmethyl-3,14β-dihydroxy-6,7-dehydro-4,5α-epoxy-6,7,2',3'-[1'-(3-isothiocyanatopropyl)indolo]morphinan], in the test with cultured nerve cells, the EC50 came to 110 nM.

On to `Oc1ccc2c3c1O[C@H]1c4c(c5ccc6ccccc6c5n4CCCN=C=S)C[C@@]4(O)[C@@H](C2)N(CC2CC2)CC[C@]314` [Compound 60, 17-cyclopropylmethyl-3,14β-dihydroxy-6,7-dehydro-4,5α-epoxy-6,7,2',3'-[1'-(3-isothiocyanatopropyl)-6',7'-benzoindolo)morphinan], for which the EC50 in the test with cultured nerve cells was 93 nM.

Regarding `O=C(/C=C/c1cccc(C(F)(F)F)c1)NCCCn1c2c(c3ccccc31)C[C@@]1(O)[C@H]3Cc4ccc(O)c5c4[C@@]1(CCN3CC1CC1)[C@H]2O5` [Compound 63, 17-cyclopropylmethyl-3,14β-dihydroxy-6,7-dehydro-4,5α-epoxy-6,7,2',3'-[1'-[3-(3-trifluoromethylcinnamido)propyl]indolo]morphinan], the EC50 in the test with cultured nerve cells was 150 nM.

`O=C(/C=C/c1cccc(C(F)(F)F)c1)NCCCn1c2c(c3ccc4ccccc4c31)C[C@@]1(O)[C@H]3Cc4ccc(O)c5c4[C@@]1(CCN3CC1CC1)[C@H]2O5` [Compound 65, 17-cyclopropylmethyl-3,14β-dihydroxy-6,7-dehydro-4,5α-epoxy-6,7,2',3'-[1'-(3-(3-trifluoromethylcinnamamido)propyl)-6',7'-benzoindolo]morphinan]: the EC50 in the test on cultured nerve cells was determined as 110 nM.

As to `Oc1ccc2c3c1O[C@H]1c4c(c5ccccc5n4Cc4ccccc4)C[C@@]4(O)[C@@H](C2)N(CC2CC2)CC[C@]314` [Compound 68, 17-cyclopropylmethyl-3,14β-dihydroxy-6,7-dehydro-4,5α-epoxy-6,7,2',3'-(1'-benzylindolo)morphinan], the EC50 in the test on cultured nerve cells amounted to 91 nM.

As to `Cc1ccc(Cn2c3c(c4ccc5ccccc5c42)C[C@@]2(O)[C@H]4Cc5ccc(O)c6c5[C@@]2(CCN4CC2CC2)[C@H]3O6)cc1` [Compound 71], in the test with cultured nerve cells, the EC50 was 19 nM.

`Oc1ccc2c3c1O[C@H]1c4c(c5cc6c7c(cccc7c5n4Cc4ccccc4)CC6)C[C@@]4(O)[C@@H](C2)N(CC2CC2)CC[C@]314` [Compound 83, 17-cyclopropylmethyl-3,14β-dihydroxy-6,7-dehydro-4,5α-epoxy-6,7,2',3'-(1'-benzyl-5',6"-ethano-6',7'-benzoindolo)morphinan]: in the test on cultured nerve cells, the EC50 amounted to 73 nM.

Regarding `Cn1c2c(c3cc4c5c(cccc5c31)CC4)C[C@@]1(O)[C@H]3Cc4ccc(O)c5c4[C@@]1(CCN3CC1CC1)[C@H]2O5` [Compound 84, 17-cyclopropylmethyl-3,14β-dihydroxy-6,7-dehydro-4,5α-epoxy-6,7,2',3'-(1'-methyl-5',6"-ethano-6',7'-benzoindolo)morphinan], the EC50 in the test with cultured nerve cells is 39 nM.

(Values after patent US6156762A, “Indolomorphinan derivative and agent for curing and preventing cerebral disorder” (Toray Industries, Inc., priority 1997, dated 2000).)
